Experimental data published in US10899793B2, “Melanocortin ligands and methods of use thereof” (priority 2016, dated 2021).
Square brackets hold non-standard residues; d marks the D form. Peptide text beside a SMILES is read from it. Bip = N[C@@H](Cc1ccc(-c2ccccc2)cc1)C(=O)O; dPhe(4-I) = N[C@H](Cc1ccc(I)cc1)C(=O)O; 2Nal = N[C@@H](Cc1ccc2ccccc2c1)C(=O)O; d2Nal = N[C@H](Cc1ccc2ccccc2c1)C(=O)O; Bta = N[C@@H](Cc1csc2ccccc12)C(=O)O; Tic = O=C(O)[C@@H]1Cc2ccccc2CN1

Experiments:
mMC4R [1] = biological target: T1, mMC4R (Mus musculus, UniProt P56450); conditions: for mMC4R Antagonist pA2 ± SEM: Table 1, Schild analysis, pA2 = -Log(Ki)
T1 sequence (P56450 whole entry): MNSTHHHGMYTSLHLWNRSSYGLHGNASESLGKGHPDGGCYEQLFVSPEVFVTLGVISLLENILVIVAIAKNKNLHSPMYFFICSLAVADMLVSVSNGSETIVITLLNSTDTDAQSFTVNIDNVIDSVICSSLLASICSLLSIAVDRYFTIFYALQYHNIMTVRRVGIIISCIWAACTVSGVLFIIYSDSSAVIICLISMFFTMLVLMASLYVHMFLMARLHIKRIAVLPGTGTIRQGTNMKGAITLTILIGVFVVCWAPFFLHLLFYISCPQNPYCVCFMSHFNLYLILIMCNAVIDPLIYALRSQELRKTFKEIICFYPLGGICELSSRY

mMC3R [2] = biological target: T2, mMC3R (Mus musculus, UniProt P33033); conditions: Table 1; Schild analysis, pA2 = -Log(Ki); Full Agonist = full dose-response, No Activity = no shift in EC50
T2 sequence (P33033 whole entry): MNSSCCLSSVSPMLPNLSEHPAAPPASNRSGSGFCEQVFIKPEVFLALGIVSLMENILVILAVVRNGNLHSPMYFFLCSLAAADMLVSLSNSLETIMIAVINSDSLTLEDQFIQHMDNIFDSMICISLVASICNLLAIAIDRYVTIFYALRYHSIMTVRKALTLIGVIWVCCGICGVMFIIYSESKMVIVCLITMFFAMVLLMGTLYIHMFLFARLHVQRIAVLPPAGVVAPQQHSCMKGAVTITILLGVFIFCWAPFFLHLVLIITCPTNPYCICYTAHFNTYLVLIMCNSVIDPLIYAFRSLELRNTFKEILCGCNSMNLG

mMC4R [3] = biological target: T1, mMC4R; assay: AlphaScreen cAMP agonist assay at mMC4R; conditions: read-out: mMC4R Agonist, percent of the NDP-MSH maximal positive control
mMC3R [4] = biological target: T2, mMC3R; assay: AlphaScreen cAMP agonist assay at mMC3R; conditions: Table 1; @ 100 μM
mMC5R = mMC5R (Mus musculus, UniProt P41149); assay: AlphaScreen cAMP agonist assay at mMC5R; conditions: read-out: percent of the NDP-MSH maximal positive control, Table 2
Sequence of mMC5R (P41149 whole entry): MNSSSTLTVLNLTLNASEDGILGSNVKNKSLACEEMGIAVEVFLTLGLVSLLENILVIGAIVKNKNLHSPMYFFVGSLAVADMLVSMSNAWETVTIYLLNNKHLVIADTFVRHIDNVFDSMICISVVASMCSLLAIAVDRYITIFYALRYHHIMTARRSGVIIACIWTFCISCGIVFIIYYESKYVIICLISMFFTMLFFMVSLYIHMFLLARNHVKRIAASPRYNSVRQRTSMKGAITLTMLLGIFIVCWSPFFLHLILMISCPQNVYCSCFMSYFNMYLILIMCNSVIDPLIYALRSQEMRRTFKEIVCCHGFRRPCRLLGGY

| SMILES | mMC4R Antagonist pA2 ± SEM (mMC4R [1]) | mMC3R Antagonist pA2 ± SEM (mMC3R [2]) | antagonist pA2 at the mMC4R (mMC4R [1]) | activation at 100 µM (mMC4R [3]) | mMC3R Agonist, percent of the NDP-MSH maximal positive control (mMC3R [4]) | activation at 100 µM (mMC5R) |
| --- | --- | --- | --- | --- | --- | --- |
| CC(=O)N[C@@H](Cc1ccc2ccccc2c1)C(=O)N[C@@H](CCCNC(=N)N)C(=O)N[C@H](Cc1ccc(I)cc1)C(=O)N[C@@H](Cc1ccc(-c2ccccc2)cc1)C(N)=O [SKY4-48-8, Ac-Nal(2′)-Arg-(pI)DPhe-Bip-NH2] (Ac-[2Nal]R[dPhe(4-I)][Bip]-NH2) | Full Agonist | Full Agonist |  |  |  |  |
| CC(=O)N[C@H](Cc1ccc2ccccc2c1)C(=O)N[C@@H](CCCNC(=N)N)C(=O)N[C@H](Cc1ccc(I)cc1)C(=O)N[C@@H](Cc1ccccc1)C(N)=O [SKY4-48-33, Ac-DNal(2′)-Arg-(pI)DPhe-Phe-NH2] (Ac-[d2Nal]R[dPhe(4-I)]F-NH2) |  |  | 6.9 |  |  |  |
| CC(=O)N1Cc2ccccc2C[C@H]1C(=O)N[C@@H](CCCNC(=N)N)C(=O)N[C@H](Cc1ccc(I)cc1)C(=O)N1Cc2ccccc2C[C@H]1C(N)=O [SKY6-24-1, Ac-Tic-Arg-(pI)DPhe-Tic-NH2] (Ac-[Tic]R[dPhe(4-I)][Tic]-NH2) |  | Full Agonist |  | 36% |  |  |
| CC(=O)N[C@@H](Cc1ccccc1)C(=O)N[C@@H](CCCNC(=N)N)C(=O)N[C@H](Cc1ccc(I)cc1)C(=O)N[C@@H](Cc1ccc2ccccc2c1)C(N)=O [SKY4-48-39, Ac-Phe-Arg-(pI)DPhe-Nal(2′)-NH2] (Ac-FR[dPhe(4-I)][2Nal]-NH2) |  | No Activity |  |  | 44% @ 100 μM | 61% |
| CC(=O)N[C@@H](Cc1ccc2ccccc2c1)C(=O)N[C@@H](CCCNC(=N)N)C(=O)N[C@H](Cc1ccc(I)cc1)C(=O)N[C@@H](Cc1csc2ccccc12)C(N)=O [SKY4-48-16, Ac-Nal(2′)-Arg-(pI)DPhe-3Bal-NH2] (Ac-[2Nal]R[dPhe(4-I)][Bta]-NH2) |  | Full Agonist |  |  |  |  |
| CC(=O)N[C@@H](Cc1csc2ccccc12)C(=O)N[C@@H](CCCNC(=N)N)C(=O)N[C@H](Cc1ccc(I)cc1)C(=O)N1Cc2ccccc2C[C@H]1C(N)=O [SKY4-48-21, Ac-3Bal-Arg-(pI)DPhe-Tic-NH2] (Ac-[Bta]R[dPhe(4-I)][Tic]-NH2) |  | Full Agonist |  | 37% |  |  |
| CC(=O)N[C@@H](Cc1ccc2ccccc2c1)C(=O)N[C@@H](CCCNC(=N)N)C(=O)N[C@H](Cc1ccc(I)cc1)C(=O)N1Cc2ccccc2C[C@H]1C(N)=O [SKY4-48-24, Ac-Nal(2′)-Arg-(pI)DPhe-Tic-NH2] (Ac-[2Nal]R[dPhe(4-I)][Tic]-NH2) |  | Full Agonist |  | 33% |  |  |
| CC(=O)N[C@@H](Cc1ccc2ccccc2c1)C(=O)N[C@@H](CCCNC(=N)N)C(=O)N[C@H](Cc1ccc(I)cc1)C(=O)N[C@@H](Cc1ccc2ccccc2c1)C(N)=O [SKY4-48-40, Ac-Nal(2′)-Arg-(pI)DPhe-Nal(2′)-NH2] (Ac-[2Nal]R[dPhe(4-I)][2Nal]-NH2) | No Activity | No Activity |  |  | 39% @ 100 μM | 45% |
| CC(=O)N[C@H](Cc1ccc2ccccc2c1)C(=O)N[C@@H](CCCNC(=N)N)C(=O)N[C@H](Cc1ccc(I)cc1)C(=O)N[C@@H](Cc1csc2ccccc12)C(N)=O [SKY4-48-17, Ac-DNal(2′)-Arg-(pI)DPhe-3Bal-NH2] (Ac-[d2Nal]R[dPhe(4-I)][Bta]-NH2) |  | Full Agonist |  | 45% |  |  |
| CC(=O)N[C@@H](Cc1ccc(-c2ccccc2)cc1)C(=O)N[C@@H](CCCNC(=N)N)C(=O)N[C@H](Cc1ccc(I)cc1)C(=O)N[C@H](Cc1ccc2ccccc2c1)C(N)=O [SKY4-48-44, Ac-Bip-Arg-(pI)DPhe-DNal(2′)-NH2] (Ac-[Bip]R[dPhe(4-I)][d2Nal]-NH2) | No Activity | No Activity |  |  | 32% @ 100 μM | 55% |
| CC(=O)N[C@@H](Cc1c[nH]cn1)C(=O)N[C@@H](CCCNC(=N)N)C(=O)N[C@H](Cc1ccc(I)cc1)C(=O)N[C@@H](Cc1ccccc1)C(N)=O [SKY5-146-3, Ac-His-Arg-(pI)DPhe-Phe-NH2] (Ac-HR[dPhe(4-I)]F-NH2) |  | Full Agonist |  |  |  |  |
| CC(=O)N[C@@H](Cc1ccc(-c2ccccc2)cc1)C(=O)N[C@@H](CCCNC(=N)N)C(=O)N[C@H](Cc1ccc(I)cc1)C(=O)N[C@@H](Cc1ccccc1)C(N)=O [SKY4-48-28, Ac-Bip-Arg-(pI)DPhe-Phe-NH2] (Ac-[Bip]R[dPhe(4-I)]F-NH2) |  | No Activity |  |  | 77% @ 100 μM | 69% |
| CC(=O)N[C@@H](Cc1c[nH]cn1)C(=O)N[C@@H](CCCNC(=N)N)C(=O)N[C@H](Cc1ccc(I)cc1)C(=O)N[C@@H](Cc1ccc2ccccc2c1)C(N)=O [SKY4-48-35, Ac-His-Arg-(pI)DPhe-Nal(2′)-NH2] (Ac-HR[dPhe(4-I)][2Nal]-NH2) |  |  |  | 35% | 57% @ 100 μM |  |
| CC(=O)N[C@@H](Cc1ccc(-c2ccccc2)cc1)C(=O)N[C@@H](CCCNC(=N)N)C(=O)N[C@H](Cc1ccc(I)cc1)C(=O)N1Cc2ccccc2C[C@H]1C(N)=O [SKY4-48-20, Ac-Bip-Arg-(pI)DPhe-Tic-NH2] (Ac-[Bip]R[dPhe(4-I)][Tic]-NH2) |  | Full Agonist |  |  |  |  |
| CC(=O)N[C@@H](Cc1csc2ccccc12)C(=O)N[C@@H](CCCNC(=N)N)C(=O)N[C@H](Cc1ccc(I)cc1)C(=O)N[C@@H](Cc1ccccc1)C(N)=O [SKY5-146-4, Ac-3Bal-Arg-(pI)DPhe-Phe-NH2] (Ac-[Bta]R[dPhe(4-I)]F-NH2) | No Activity | No Activity |  |  | 37% @ 100 μM | 35% |
| CC(=O)N[C@@H](Cc1ccccc1)C(=O)N[C@@H](CCCNC(=N)N)C(=O)N[C@H](Cc1ccc(I)cc1)C(=O)N[C@H](Cc1ccc2ccccc2c1)C(N)=O [SKY4-48-47, Ac-Phe-Arg-(pI)DPhe-DNal(2′)-NH2] (Ac-FR[dPhe(4-I)][d2Nal]-NH2) |  | No Activity |  |  | 22% @ 100 μM | 39% |
| CC(=O)N[C@@H](CCCNC(=N)N)C(=O)N[C@@H](CCCNC(=N)N)C(=O)N[C@H](Cc1ccc(I)cc1)C(=O)N[C@@H](Cc1ccc2ccccc2c1)C(N)=O [SKY4-48-34, Ac-Arg-Arg-(pI)DPhe-Nal(2′)-NH2] |  |  |  |  | 51% @ 100 μM |  |
| CC(=O)N[C@@H](Cc1csc2ccccc12)C(=O)N[C@@H](CCCNC(=N)N)C(=O)N[C@H](Cc1ccc(I)cc1)C(=O)N[C@@H](Cc1ccc2ccccc2c1)C(N)=O [SKY4-48-37, Ac-3Bal-Arg-(pI)DPhe-Nal(2′)-NH2] (Ac-[Bta]R[dPhe(4-I)][2Nal]-NH2) | No Activity | No Activity |  |  |  | 50% |
| CC(=O)N[C@@H](Cc1ccc2ccccc2c1)C(=O)N[C@@H](CCCNC(=N)N)C(=O)N[C@H](Cc1ccc(I)cc1)C(=O)N[C@@H](Cc1ccccc1)C(N)=O [SKY4-48-32, Ac-Nal(2′)-Arg-(pI)DPhe-Phe-NH2] (Ac-[2Nal]R[dPhe(4-I)]F-NH2) | No Activity | No Activity |  |  | 42% @ 100 μM | 49% |
| CC(=O)N[C@@H](Cc1ccccc1)C(=O)N[C@@H](CCCNC(=N)N)C(=O)N[C@H](Cc1ccc(I)cc1)C(=O)N[C@@H](Cc1ccccc1)C(N)=O [SKY4-48-31, Ac-Phe-Arg-(pI)DPhe-Phe-NH2] (Ac-FR[dPhe(4-I)]F-NH2) | No Activity | No Activity |  |  | 50% @ 100 μM | 52% |
| CC(=O)N1Cc2ccccc2C[C@H]1C(=O)N[C@@H](CCCNC(=N)N)C(=O)N[C@H](Cc1ccc(I)cc1)C(=O)N[C@@H](Cc1ccccc1)C(N)=O [SKY4-48-30, Ac-Tic-Arg-(pI)DPhe-Phe-NH2] (Ac-[Tic]R[dPhe(4-I)]F-NH2) | No Activity | No Activity |  |  |  | 21% |
| CC(=O)N[C@@H](Cc1csc2ccccc12)C(=O)N[C@@H](CCCNC(=N)N)C(=O)N[C@H](Cc1ccc(I)cc1)C(=O)N[C@@H](Cc1csc2ccccc12)C(N)=O [SKY4-48-13, Ac-3Bal-Arg-(pI)DPhe-3Bal-NH2] (Ac-[Bta]R[dPhe(4-I)][Bta]-NH2) |  | Full Agonist |  |  |  |  |
| CC(=O)N[C@@H](Cc1ccc(-c2ccccc2)cc1)C(=O)N[C@@H](CCCNC(=N)N)C(=O)N[C@H](Cc1ccc(I)cc1)C(=O)N[C@@H](Cc1csc2ccccc12)C(N)=O [SKY4-48-12, Ac-Bip-Arg-(pI)DPhe-3Bal-NH2] (Ac-[Bip]R[dPhe(4-I)][Bta]-NH2) | No Activity | Full Agonist |  |  |  |  |
